Experimental data as given in US7179941B2, “Carbonylamino-substituted acyl phenyl urea derivatives, process for their preparation and their use” (Sanofi-Aventis Deutschland GmbH, priority 2003, dated 2007).
One block for each compound: values may come before it.

Target: T1, human glycogen phosphorylase a (Homo sapiens, UniProt P06737)
T1 sequence (P06737 1-847): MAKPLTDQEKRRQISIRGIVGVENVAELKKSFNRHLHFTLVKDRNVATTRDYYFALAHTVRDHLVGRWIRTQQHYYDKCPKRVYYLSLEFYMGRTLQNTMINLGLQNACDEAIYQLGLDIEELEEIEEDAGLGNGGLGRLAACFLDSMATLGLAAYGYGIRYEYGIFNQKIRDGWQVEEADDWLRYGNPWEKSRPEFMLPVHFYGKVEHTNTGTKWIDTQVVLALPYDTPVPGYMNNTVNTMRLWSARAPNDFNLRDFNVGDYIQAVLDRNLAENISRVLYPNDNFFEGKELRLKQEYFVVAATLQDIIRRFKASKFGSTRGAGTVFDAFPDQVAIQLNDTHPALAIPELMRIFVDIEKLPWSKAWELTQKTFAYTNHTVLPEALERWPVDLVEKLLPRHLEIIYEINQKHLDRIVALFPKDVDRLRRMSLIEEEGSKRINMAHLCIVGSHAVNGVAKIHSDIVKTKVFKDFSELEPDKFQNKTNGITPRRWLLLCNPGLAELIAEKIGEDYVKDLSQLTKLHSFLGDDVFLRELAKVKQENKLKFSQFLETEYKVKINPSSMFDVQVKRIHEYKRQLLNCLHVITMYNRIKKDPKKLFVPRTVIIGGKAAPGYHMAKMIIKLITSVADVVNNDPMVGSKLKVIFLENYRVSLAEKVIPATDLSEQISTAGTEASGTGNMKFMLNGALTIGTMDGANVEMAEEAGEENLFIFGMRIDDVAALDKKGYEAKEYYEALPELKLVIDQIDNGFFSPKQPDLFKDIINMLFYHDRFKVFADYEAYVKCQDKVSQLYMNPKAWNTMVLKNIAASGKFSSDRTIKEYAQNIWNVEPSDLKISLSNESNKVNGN
Assay: Glycogen phosphorylase a activity test
Format: biochemical
Details: 10 μM test substance; GPa measured in reverse direction (glycogen synthesis from glucose 1-phosphate)
Procedure: Glycogen Phophorylase a Activity Test
The effect of compounds on the activity of the active form of glycogen phosphorylase (GPa) was measured in the reverse direction by monitoring the synthesis of glycogen from glucose 1-phosphate by determining the release of inorganic phosphate. All reactions were carried out as duplicate determinations in 96-well microtiter plates (half area plates, Costar No. 3696), and the change in absorption as a consequence of the formation of the reaction product was measured at the wavelength specified below in a Multiskan Ascent Elisa Reader (Lab Systems, Finland).
In order to measure the GPa enzyme activity in the reverse direction, the conversion of glucose 1-phosphate to glycogen and inorganic phosphate was measured by the general method of Engers et al. (Engers HD, Shechosky S, Madsen NB, Can J Biochem 1970 July;48(7):746–754) with the following modifications: human glycogen phosphorylase a (for example containing 0.76 mg of protein/ml (Aventis Pharma Deutschland GmbH), dissolved in buffer solution E (25 mM P-glycerophosphate, pH 7.0, 1 mM EDTA and 1 mM dithiotreitol) was diluted to a concentration of 10 μg of protein/ml with buffer T (50 mM Hepes, pH 7.0, 100 mM KCl, 2.5 mM EDTA, 2.5 mM MgCl2.6H2O) and addition of 5 mg/ml of glycogen. Test substances were prepared as a 10 mM solution in DMSO and diluted to 50 μM with buffer solution T. To 10 μl of this solution were added 10 μl of 37.5 mM glucose dissolved in buffer solution T and 5 mg/ml of glycogen, and also 10 μl of a solution of human glycogen phosphorylase a (10 μg of protein/ml) and 20 μl of 2.5 mM glucose 1-phosphate. The base value of the activity of glycogen phosphorylase a in the absence of test substance was determined by adding 10 μl of buffer solution T (0.1% DMSO). The mixture was incubated at room temperature for 40 minutes and the released inorganic phosphate was determined by means of the general method of Drueckes et al. (Drueckes P, Schinzel R, Palm D, Anal Biochem 1995 Sep. 1;230(1):173–177) with the following modifications: 50 μl of a stop solution of 7.3 mM of ammonium molybdate, 10.9 mM of zinc acetate, 3.6% of ascorbic acid, 0.9% of SDS are added to 50 μl of the enzyme mixture. After 60 minutes of incubation at 45° C., the absorption was measured at 820 nm. To determine the background absorption, the stop solution was added immediately after the addition of the glucose 1-phosphate solution in a separate reaction.

Structure (SMILES): COC(=O)C(=O)Nc1ccc(OC)c(NC(=O)NC(=O)c2cc(F)c(F)cc2Cl)c1 [Example 2]
% Inhibition at 10 μM: 99%

Structure (SMILES): COC(=O)CCC(=O)Nc1ccc(OC)c(NC(=O)NC(=O)c2cc(F)c(F)cc2Cl)c1 [Example 4]
% Inhibition at 10 μM: 97%

Structure (SMILES): COc1ccc(NC(=O)CC(=O)O)cc1NC(=O)NC(=O)c1cc(F)c(F)cc1Cl [Example 6]
% Inhibition at 10 μM: 100%

Structure (SMILES): COc1ccc(NC(=O)CCC(=O)O)cc1NC(=O)NC(=O)c1cc(F)c(F)cc1Cl [Example 7]
% Inhibition at 10 μM: 100%

Structure (SMILES): COc1ccc(NC(=O)CCC(N)=O)cc1NC(=O)NC(=O)c1cc(F)c(F)cc1Cl [Example 8]
% Inhibition at 10 μM: 100%

Structure (SMILES): COc1cc(C)c(NC(C)=O)cc1NC(=O)NC(=O)c1cc(F)c(F)cc1Cl [Example 14]
% Inhibition at 10 μM: 91%

Structure (SMILES): COC(=O)C(=O)Nc1cc(NC(=O)NC(=O)c2cc(F)c(F)cc2Cl)c(OC)cc1C [Example 15]
% Inhibition at 10 μM: 101%

Structure (SMILES): CCOC(=O)c1cc(OC)c(NC(=O)NC(=O)c2cc(F)c(F)cc2Cl)cc1NC(C)=O [Example 20]
% Inhibition at 10 μM: 95%

Structure (SMILES): COc1cc(C(=O)O)c(NC(=O)CC(=O)O)cc1NC(=O)NC(=O)c1cc(F)c(F)cc1Cl [Example 22]
% Inhibition at 10 μM: 96%

Structure (SMILES): COCC(=O)Nc1ccc(OC)c(NC(=O)NC(=O)c2cc(F)c(F)cc2Cl)c1 [Example 27]
% Inhibition at 10 μM: 98%

Structure (SMILES): COc1ccc(NC(=O)c2cccnc2)cc1NC(=O)NC(=O)c1cc(F)c(F)cc1Cl [Example 28]
% Inhibition at 10 μM: 89%

Structure (SMILES): COc1ccc(NC(=O)C2CC2)cc1NC(=O)NC(=O)c1cc(F)c(F)cc1Cl [Example 31]
% Inhibition at 10 μM: 98%

Structure (SMILES): COc1ccc(NC(=O)c2ccco2)cc1NC(=O)NC(=O)c1cc(F)c(F)cc1Cl [Example 32]
% Inhibition at 10 μM: 102%

Other lines, results leading:

inhibition at 10 µM: 99%
Structure (SMILES): COc1ccc(NC(C)=O)cc1NC(=O)NC(=O)c1cc(F)c(F)cc1Cl [Example 1, N-{3-[3-(2-Chloro-4,5-difluorobenzoyl)ureido]-4-methoxyphenyl}acetamide]

% Inhibition at 10 μM: 104%
Structure (SMILES): COC(=O)CC(=O)Nc1ccc(OC)c(NC(=O)NC(=O)c2cc(F)c(F)cc2Cl)c1 [Example 3]

% Inhibition at 10 μM: 99%
Structure (SMILES): COc1ccc(NC(=O)C(=O)O)cc1NC(=O)NC(=O)c1cc(F)c(F)cc1Cl [Example 5]

% Inhibition at 10 μM: 95%
Structure (SMILES): COC(=O)CC(=O)Nc1cc(NC(=O)NC(=O)c2cc(F)c(F)cc2Cl)c(C)cc1OC [Example 10]

% Inhibition at 10 μM: 96%
Structure (SMILES): COc1cc(C)c(NC(=O)NC(=O)c2cc(F)c(F)cc2Cl)cc1NC(=O)CC(=O)O [Example 11]

% Inhibition at 10 μM: 90%
Structure (SMILES): COc1cc(C)c(NC(=O)NC(=O)c2cc(F)c(F)cc2Cl)cc1NC(=O)CCC(=O)O [Example 12]

% Inhibition at 10 μM: 94%
Structure (SMILES): COc1cc(C)c(NC(=O)NC(=O)c2cc(F)c(F)cc2Cl)cc1NC(=O)C(=O)O [Example 13]

% Inhibition at 10 μM: 95%
Structure (SMILES): COC(=O)CC(=O)Nc1cc(NC(=O)NC(=O)c2cc(F)c(F)cc2Cl)c(OC)cc1C [Example 16]

% Inhibition at 10 μM: 100%
Structure (SMILES): COc1cc(C)c(NC(=O)C(=O)O)cc1NC(=O)NC(=O)c1cc(F)c(F)cc1Cl [Example 17]

% Inhibition at 10 μM: 99%
Structure (SMILES): COc1cc(C)c(NC(=O)CC(=O)O)cc1NC(=O)NC(=O)c1cc(F)c(F)cc1Cl [Example 18]

% Inhibition at 10 μM: 97%
Structure (SMILES): COc1cc(C(=O)O)c(NC(C)=O)cc1NC(=O)NC(=O)c1cc(F)c(F)cc1Cl [Example 19]

% Inhibition at 10 μM: 95%
Structure (SMILES): COc1cc(C(=O)O)c(NC(=O)C(=O)O)cc1NC(=O)NC(=O)c1cc(F)c(F)cc1Cl [Example 25]

% Inhibition at 10 μM: 97%
Structure (SMILES): COc1cc(C(=O)O)c(NC(=O)CCC(=O)O)cc1NC(=O)NC(=O)c1cc(F)c(F)cc1Cl [Example 26]

% Inhibition at 10 μM: 98%
Structure (SMILES): COc1ccc(NC(=O)c2cccs2)cc1NC(=O)NC(=O)c1cc(F)c(F)cc1Cl [Example 29]

% Inhibition at 10 μM: 101%
Structure (SMILES): CCC(=O)Nc1ccc(OC)c(NC(=O)NC(=O)c2cc(F)c(F)cc2Cl)c1 [Example 30]

% Inhibition at 10 μM: 96%
Structure (SMILES): COc1ccc(NC(=O)C2CCCC2)cc1NC(=O)NC(=O)c1cc(F)c(F)cc1Cl [Example 33]
